From patent US9845297B2, “Antimicrobial compounds and methods of making and using the same” (Melinta Therapeutics, Inc., priority 2009, dated 2017)

test system: Eschericia coli strain ATCC25922; experiment: standard microdilution assay to determine minimum inhibitory concentrations (MICs); format: cell-based; conditions: Escherichia coli, ATCC25922, Eschericia coli strain ATCC25922, standard microdilution assay; read-out: E. coli ATCC25922 MIC
Description: Minimum inhibitory concentrations (MICs) are determined by the microdilution method, typically in a final volume of 100 microliters, according to protocols outlined by The Clinical and Laboratory Standards Institute [CLSI; formerly the National Committee for Clinical Laboratory Standards (NCCLS)]. See CLSI: Methods for dilution antimicrobial susceptibility tests for bacteria that grow aerobically; approved standard-fifth edition. Wayne, Pa.: NCCLS; 2000. The assays can be also be performed in microtiter trays according to conventional methodologies as published by the CLSI. See CLSI. Methods for Dilution Antimicrobial Susceptibility Tests for Bacteria That Grow Aerobically; Approved Standard-Seventh Edition. CLSI Document M7-A7 [ISBN 1-56238-587-9] CLSI, 940 West Valley Road, Suite 1400, Wayne Pa. 19087-1898 USA, 2006).
The compounds of the present invention were tested for antimicrobial activity. The compounds were run against Eschericia coli strain ATCC25922 using a standard microdilution assay to determine minimum inhibitory concentrations (MICs). […] A “N/A” means that data is unavailable. It will be recognized by one skilled in the art that the compounds can be assessed against other bacterial organisms and that the presentation of data for activity against Eschericia coli is illustrative and in no way is intended to limit the scope of the present invention. The compounds of the present invention can be assayed against a range of other microorganisms depending upon the performance activity desired to be gathered. Furthermore, the “+”, “−”, and “N/A” representation and the selection of a cutoff value of 16 micrograms/ml is also illustrative and in no way is intended to limit the scope of the present invention.

Structure (SMILES)	MIC [µg/mL]
NCCCNCc1ccc(-n2cc(F)c(NC(N)=O)nc2=O)cc1 [Compound 138]	> 16
NCc1ccc(-n2ccc(NC(N)=O)nc2=O)cc1 [Compound 139]	> 16
NCc1cn(-c2ccc(-n3cnc(NC(N)=O)nc3=O)cc2)nn1 [Compound 140]	> 16
N=C(N)NCc1cn(-c2ccc(-n3ccc(NC(N)=O)nc3=O)cc2)nn1 [Compound 141]	> 16
NCCCN(CCCN)Cc1ccc(-n2cc(F)c(N)nc2=O)cc1 [Compound 143]	> 16
NCCCNC(CCCN)c1ccc(-n2ccc(NC(N)=O)nc2=O)cc1 (stereo not drawn) [Compound 144]	> 16
NCCCN(CCCN)Cc1ccc(-n2ccc(NC(N)=O)nc2=O)cc1 [Compound 145]	> 16
NCCCC(N)c1ccc(-n2ccc(NC(N)=O)nc2=O)cc1 (stereo not drawn) [Compound 146]	> 16
N=C(N)NCCC[C@@H](CCCn1ccc(NC(=O)NS(=O)(=O)c2ccc(F)cc2)nc1=O)NCCCN [Compound 147]	> 16
N=C(N)NCCC[C@@H](CCCn1ccc(NC(=O)Nc2ccc(F)cc2)nc1=O)NCCCN [Compound 148]	> 16
NCCCN(CCCN)Cc1ccc(-c2c[nH]c(NC(N)=O)nc2=O)cc1 [Compound 149]	> 16
NC[C@@H](N)c1cn(-c2ccc(-n3ccc(NC(N)=O)nc3=O)cc2)nn1 [Compound 150]	> 16
Cc1nc(-c2cccc(NC(=O)Nc3ccn(CCC[C@H](CCCNC(=N)N)NCCCN)c(=O)n3)c2)no1 [Compound 151]	> 16
CN(C)c1ccc(NC(=O)Nc2ccn(CCC[C@H](CCCNC(=N)N)NCCCN)c(=O)n2)cc1 [Compound 152]	> 16
NCCN(CCN)CCCN1CC=C(n2ccc(NC(N)=O)nc2=O)CC1 [Compound 153]	> 16
N=C(N)NCCC[C@@H](CCCn1ccc(NC(=O)c2ccc(Cl)cc2)nc1=O)NCCCN [Compound 155]	> 16
N=C(N)NCC(NCCCN)c1ccc(-n2ccc(NC(N)=O)nc2=O)cc1 (stereo not drawn) [Compound 156]	> 16

Structure (SMILES)	MIC [µg/mL]
Cn1nnc2cc(C(=O)Nc3ccn(CCC[C@H](CCCNC(=N)N)NCCCN)c(=O)n3)ccc21 [Compound 157]	> 16
Cc1c(C(=O)Nc2ccn(CCC[C@H](CCCNC(=N)N)NCCCN)c(=O)n2)ccn1-c1ccc(Cl)cc1 [Compound 158]	> 16
N=C(N)NCCC[C@@H](CCCn1ccc(NC(=O)Nc2ccc(F)cc2F)nc1=O)NCCCN [Compound 159]	> 16
N=C(N)NCCC[C@@H](CCCn1ccc(NC(=O)Nc2ccc(F)c(F)c2)nc1=O)NCCCN [Compound 160]	> 16
NCC[C@H](N)C(=O)N1CCN(C2C=NC(NC(N)=O)=NC2=O)CC1 (stereo partly drawn) [Compound 161]	> 16
NC[C@@H](N)C(=O)Nc1ccc(-c2c[nH]c(NC(N)=O)cc2=O)cc1 [Compound 162]	> 16
N=C(N)NCCC[C@@H](CCCn1ccc(NC(=O)Nc2cc(F)c(F)cc2F)nc1=O)NCCCN [Compound 164]	> 16
N=C(N)NCCC[C@@H](CCCn1ccc(NC(=O)Nc2ccc(C(F)(F)F)cc2)nc1=O)NCCCN [Compound 165]	> 16
Cc1nc(-c2cccc(NC(=O)Nc3ccn(CCC[C@H](CCCNC(=N)N)NCCCN)c(=O)n3)c2)cs1 [Compound 166]	> 16
Cc1nc(-c2cnccn2)sc1C(=O)Nc1ccn(CCC[C@H](CCCNC(=N)N)NCCCN)c(=O)n1 [Compound 167]	> 16
N=C(N)NCCN(CCCN)Cc1ccc(-c2c[nH]c(NC(N)=O)nc2=O)cc1 [Compound 170]	> 16
NCCCN(CCCN)Cc1ccc(-c2c[nH]c(NC(=O)Nc3ccc(F)c(F)c3)nc2=O)cc1 [Compound 171]	> 16
NCCCN(CCCN)Cc1ccc(-c2c[nH]c(NC(=O)c3ccc(Cl)cc3)nc2=O)cc1 [Compound 173]	> 16
Cn1ncc(C(=O)Nc2nc(=O)c(-c3ccc(CN(CCCN)CCCN)cc3)c[nH]2)c1Cl [Compound 174]	> 16
CSc1ccc(C(=O)Nc2ccn(CCCC(CCCNC(=N)N)NCCCN)c(=O)n2)cc1 (stereo not drawn) [Compound 175]	> 16
COc1ccc(C(=O)Nc2ccn(CCCC(CCCNC(=N)N)NCCCN)c(=O)n2)cc1 (stereo not drawn) [Compound 177]	> 16
NCCCN(CCCN)Cc1ccc(-c2c[nH]c(NC(=O)Nc3cc(F)c(F)cc3F)nc2=O)cc1 [Compound 178]	> 16

Other lines, results leading:

MIC [µg/mL]	Structure (SMILES)
> 16	CN(C(=O)C[C@@H](N)CCCNC(=N)N)C1CNC(NC(N)=O)=NC1=O (stereo partly drawn) [Compound 100]
> 16	CN(C(=O)C[C@H](CCCNC(=N)N)NC(=O)CCCN)C1CNC(NC(N)=O)=NC1=O (stereo partly drawn) [Compound 102]
> 16	CN(C(=O)C[C@H](CCCNC(=N)N)NC(=O)CCN)C1CNC(NC(N)=O)=NC1=O (stereo partly drawn) [Compound 103]
> 16	CN(C(=O)C[C@H](CCCNC(=N)N)NC(=O)CCO)C1CNC(NC(N)=O)=NC1=O (stereo partly drawn) [Compound 104]
> 16	CN(C(=O)C[C@H](CCCNC(=N)N)NC(=N)N)C1CNC(NC(N)=O)=NC1=O (stereo partly drawn) [Compound 105]
< 16	CN(C(=O)C[C@H](CCCNC(=N)N)NCCCN)C1CNC(NC(N)=O)=NC1=O (stereo partly drawn) [Compound 106]
> 16	CN(C(=O)C[C@H](CCCNC(=N)N)NC(=O)CCNC(=N)N)C1CNC(NC(N)=O)=NC1=O (stereo partly drawn) [Compound 107]
> 16	CN(C(=O)C[C@H](CCCNC(=N)N)NC(=O)CCN1CCNCC1)C1CNC(NC(N)=O)=NC1=O (stereo partly drawn) [Compound 108]
< 16	CN(C(=O)C[C@H](CCCNC(=N)N)NCCCCNC(=N)N)C1CNC(NC(N)=O)=NC1=O (stereo partly drawn) [Compound 109]
< 16	CN(C(=O)C[C@@H](N)CCCNC(=N)N)C1CNC(NC(=O)c2ccc(NC(=O)[C@@](C)(N)CO)cc2)=NC1=O (stereo partly drawn) [Compound 110]
> 16	CN(C(=O)C[C@H](CCCNC(=N)N)NC(=O)CCc1c[nH]cn1)C1CNC(NC(N)=O)=NC1=O (stereo partly drawn) [Compound 111]
> 16	N=C(N)NCCC[C@H](N)CC(=O)N(CCCc1cocn1)C1CNC(NC(N)=O)=NC1=O (stereo partly drawn) [Compound 112]
> 16	NCCC[C@H](N)CCCn1cnc(N)nc1=O [Compound 113]
> 16	N=C(N)NCCC[C@H](N)CCCn1cnc(N)nc1=O [Compound 114]
> 16	NCCCC[C@@H](N)CCn1ccc(N)nc1=O [Compound 115]
> 16	NCCC[C@H](N)CCCn1ccc(N)nc1=O [Compound 116]
> 16	N=C(N)NCCC[C@H](N)CCCn1ccc(N)nc1=O [Compound 118]
> 16	Nc1ccn(CCC[C@@H](N)CCCOCc2ccccc2)c(=O)n1 [Compound 119]
> 16	N=C(N)NCCCCN[C@H](CCCCNC(=N)N)CCn1ccc(NC(N)=O)nc1=O [Compound 120]
> 16	N=C(N)NCCC[C@H](N)CCCn1ccc(NC(N)=O)nc1=O [Compound 121]

MIC [µg/mL]	Structure (SMILES)
> 16	NCCC[C@H](N)CCCn1ccc(NC(N)=O)nc1=O [Compound 122]
> 16	NC(=O)Nc1ccn(CCC[C@@H](N)CCCO)c(=O)n1 [Compound 123]
> 16	N=C(N)NCCCC[C@@H](N)CCn1ccc(NC(N)=O)nc1=O [Compound 124]
> 16	N=C(N)NCCCC[C@H](CCn1ccc(NC(N)=O)nc1=O)NCCCN [Compound 125]
> 16	N=C(N)NCc1ccc(-n2ccc(NC(N)=O)nc2=O)cc1 [Compound 126]
> 16	N=C(N)NCc1ccc(-n2ccc(N)nc2=O)cc1 [Compound 127]
> 16	NCCCCOc1nccc(N)n1 [Compound 128]
> 16	NCCCCn1ccc(N)nc1=O [Compound 129]
> 16	N=C(N)NCCC[C@@H](CCCn1ccc(NC(N)=O)nc1=O)NCCCN [Compound 130]
> 16	NCCCNCc1ccc(-n2ccc(NC(N)=O)nc2=O)cc1 [Compound 131]
> 16	NCCCNCc1ccc(-n2ccc(N)nc2=O)cc1 [Compound 132]
> 16	N=C(N)NCCC[C@H](N)CCCn1cnc(NC(N)=O)nc1=O [Compound 133]
> 16	N=C(N)NCCCCN[C@@H](CCCNC(=N)N)CCCn1ccc(NC(N)=O)nc1=O [Compound 134]
> 16	NCCC[C@H](N)CCCN1CCC(NC(N)=O)NC1=O (stereo partly drawn) [Compound 135]
> 16	NC(=O)NC1CCN(CCC[C@@H](N)CCCO)C(=O)N1 (stereo partly drawn) [Compound 136]
> 16	NCCCNCc1ccc(-n2cc(F)c(N)nc2=O)cc1 [Compound 137]
< 16	Cn1ncc(C(=O)Nc2ccn(CCC[C@H](CCCNC(=N)N)NCCCN)c(=O)n2)c1Cl [Compound 163]
< 16	N=C(N)NCCCN(CCCN)Cc1ccc(-c2c[nH]c(NC(N)=O)nc2=O)cc1 [Compound 168]
< 16	NCCCN(CCCN)Cc1ccc(-c2c[nH]c(NC(=O)Nc3ccc(C(F)(F)F)cc3)nc2=O)cc1 [Compound 172]
< 16	CN(C)c1ccc(C(=O)Nc2ccn(CCCC(CCCNC(=N)N)NCCCN)c(=O)n2)cc1 (stereo not drawn) [Compound 176]

same assay, conditions: Escherichia coli, ATCC25922, read-out: E. coli ATCC25922 MIC

Structure (SMILES)	MIC [µg/mL]
CN(C(=O)C[C@H](CCCNC(=N)N)NC(=O)CCCO)C1CNC(NC(N)=O)=NC1=O (stereo partly drawn) [Compound 101]	> 16
